Our source for the EC30 values is US10758534B2 (Vertex Pharmaceuticals Incorporated, priority 2014, dated 2020).

The target of one experiment is T1, F508del (Homo sapiens, UniProt P13569, DEL508-508).
T1 construct: expressed in transfected cells
T1 sequence (P13569 with tags, fused parts or gaps DEL508-508): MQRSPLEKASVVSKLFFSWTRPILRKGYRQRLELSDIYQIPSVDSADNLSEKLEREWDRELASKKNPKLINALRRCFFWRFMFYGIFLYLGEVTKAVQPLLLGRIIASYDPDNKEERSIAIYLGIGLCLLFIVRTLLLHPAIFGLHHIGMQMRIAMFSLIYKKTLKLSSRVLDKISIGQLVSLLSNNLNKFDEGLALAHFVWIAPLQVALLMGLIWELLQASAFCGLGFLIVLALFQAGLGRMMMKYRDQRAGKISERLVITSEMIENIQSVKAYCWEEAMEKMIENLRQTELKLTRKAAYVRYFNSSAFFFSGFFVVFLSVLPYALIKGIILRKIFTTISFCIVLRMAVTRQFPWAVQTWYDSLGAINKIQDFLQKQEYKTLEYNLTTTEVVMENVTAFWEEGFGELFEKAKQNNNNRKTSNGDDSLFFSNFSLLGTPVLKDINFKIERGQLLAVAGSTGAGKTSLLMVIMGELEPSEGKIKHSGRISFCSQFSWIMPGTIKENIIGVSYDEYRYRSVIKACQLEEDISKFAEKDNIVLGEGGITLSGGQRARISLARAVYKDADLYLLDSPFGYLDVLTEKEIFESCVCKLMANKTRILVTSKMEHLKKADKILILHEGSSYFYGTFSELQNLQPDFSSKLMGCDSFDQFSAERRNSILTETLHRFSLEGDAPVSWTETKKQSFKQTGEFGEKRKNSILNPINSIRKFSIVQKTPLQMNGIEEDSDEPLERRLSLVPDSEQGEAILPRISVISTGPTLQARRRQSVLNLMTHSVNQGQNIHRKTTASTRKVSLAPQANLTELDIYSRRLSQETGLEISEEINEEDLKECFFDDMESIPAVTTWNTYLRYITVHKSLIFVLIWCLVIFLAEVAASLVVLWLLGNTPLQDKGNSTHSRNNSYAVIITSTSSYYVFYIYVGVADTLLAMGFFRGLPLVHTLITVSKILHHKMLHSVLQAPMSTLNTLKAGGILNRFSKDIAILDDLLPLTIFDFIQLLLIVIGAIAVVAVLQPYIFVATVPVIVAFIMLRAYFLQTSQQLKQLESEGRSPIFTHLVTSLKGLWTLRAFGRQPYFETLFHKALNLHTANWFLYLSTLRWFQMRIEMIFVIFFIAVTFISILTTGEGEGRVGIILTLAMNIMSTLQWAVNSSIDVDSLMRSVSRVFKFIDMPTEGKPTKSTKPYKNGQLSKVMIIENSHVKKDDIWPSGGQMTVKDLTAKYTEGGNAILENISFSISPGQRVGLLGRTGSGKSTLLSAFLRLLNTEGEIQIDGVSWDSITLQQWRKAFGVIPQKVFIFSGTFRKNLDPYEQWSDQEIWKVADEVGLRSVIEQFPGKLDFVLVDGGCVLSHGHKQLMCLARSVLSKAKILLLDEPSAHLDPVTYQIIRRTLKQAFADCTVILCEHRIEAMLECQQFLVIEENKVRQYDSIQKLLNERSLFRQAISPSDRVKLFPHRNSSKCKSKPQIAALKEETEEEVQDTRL
Briefly: Protocol 2: FRET membrane potential optical assay (VIPR), identification of correction compounds. Particulars: F508del CFTR modulator activity; compounds of Table 1; read-out: EC30. It is filed as cell-based. A digest of the protocol:
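NIH3T3 mouse fibroblasts stably expressing F508del were treated with test compound for 16 hrs at 37° C. in serum-free medium; 27° C. incubation served as positive control. F508del was activated with 10 μM forskolin plus 20 μM genistein in Cl^−-free medium, and Cl^− efflux-driven depolarization was read by DiSBAC2(3)/CC2-DMPE FRET.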
Take `CC1CN(c2ncccc2C(=O)NS(=O)(=O)c2cccc(OCc3ccc(Cl)c(Cl)c3)n2)C(C)(C)C1` (stereo not drawn) [Compound 2402, N—[[6-[(3,4-dichlorophenyl)methoxy]-2-pyridyl]sulfonyl]-2-(2,2,4-trimethylpyrrolidin-1-yl)pyridine-3-carboxamide]: the EC30 was less than 3 µM.
Still for that read-out and setting: under `CC1CN(c2ncccc2C(=O)NS(=O)(=O)c2cccc(OCCc3ccsc3)n2)C(C)(C)C1` (stereo not drawn) [Compound 2161, N—[[6-[2-(3-thienyl)ethoxy]-2-pyridyl]sulfonyl]-2-(2,2,4-trimethylpyrrolidin-1-yl)pyridine-3-carboxamide] stands less than 3 µM; under `COc1ncc(-c2ccc(C(=O)NS(=O)(=O)c3ccc[nH]c3=O)c(N3C[C@@H](C)CC3(C)C)n2)cc1F` [Compound 2444, 6-(5-fluoro-6-methoxy-3-pyridyl)-N-[(2-oxo-1H-pyridin-3-yl)sulfonyl]-2-[(4S)-2,2,4-trimethylpyrrolidin-1-yl]pyridine-3-carboxamide], 3 to 10 µM; under `CCCCN(C)c1cccc(S(=O)(=O)NC(=O)c2cccnc2N2CC(C)CC2(C)C)n1` (stereo not drawn) [Compound 2307, N—[[6-[butyl(methyl)amino]-2-pyridyl]sulfonyl]-2-(2,2,4-trimethylpyrrolidin-1-yl)pyridine-3-carboxamide], less than 3 µM.
As for `C[C@@H]1CN(c2nc(-c3ccc(F)c(F)c3)ccc2C(=O)NS(=O)(=O)c2ccc[nH]c2=O)C(C)(C)C1` [Compound 2284, 6-(3,4-difluorophenyl)-N-[(2-oxo-1H-pyridin-3-yl)sulfonyl]-2-[(4S)-2,2,4-trimethylpyrrolidin-1-yl]pyridine-3-carboxamide], the EC30 was less than 3 µM.
Same read-out and setting: for `CC1CN(c2ncccc2C(=O)NS(=O)(=O)c2cccc(Oc3ccccc3)n2)C(C)(C)C1` (stereo not drawn) [Compound 2509, N-[(6-phenoxy-2-pyridyl)sulfonyl]-2-(2,2,4-trimethylpyrrolidin-1-yl)pyridine-3-carboxamide] the value was less than 3 µM; for `CC(C)OC(=O)N1CCC=C(c2ccc(C(=O)NS(=O)(=O)c3cccc(N)n3)c(N3C[C@@H](C)CC3(C)C)n2)C1` [Compound 2622, isopropyl 5-[5-[(6-amino-2-pyridyl)sulfonylcarbamoyl]-6-[(4S)-2,2,4-trimethylpyrrolidin-1-yl]-2-pyridyl]-3,6-dihydro-2H-pyridine-1-carboxylate], less than 3 µM; for `CC1CN(c2ncccc2C(=O)NS(=O)(=O)c2cccc(OCc3ccccc3C(F)(F)F)n2)C(C)(C)C1` (stereo not drawn) [Compound 2261, N—[[6-[[2-(trifluoromethyl)phenyl]methoxy]-2-pyridyl]sulfonyl]-2-(2,2,4-trimethylpyrrolidin-1-yl)pyridine-3-carboxamide], less than 3 µM.
The same measure, in the same setting: under `C[C@@H]1CN(c2nc(-c3cccc(C(F)(F)F)c3)ccc2C(=O)NS(=O)(=O)N2CC[C@H](N)C2)C(C)(C)C1` [Compound 2220, N-[(3S)-3-aminopyrrolidin-1-yl]sulfonyl-6-[3-(trifluoromethyl)phenyl]-2-[(4S)-2,2,4-trimethylpyrrolidin-1-yl]pyridine-3-carboxamide] stands 3 to 10 µM.

Still in this experiment, the particulars now being: Table 3; compounds of Table 1 as modulators of CFTR activity; protocol not stated.
As to `Cc1cccc(C)c1Cn1nc(-c2ccccc2C#N)cc1C(=O)NS(=O)(=O)c1ccccc1` [Compound 99, N-(benzenesulfonyl)-5-(2-cyanophenyl)-2-[(2,6-dimethylphenyl)methyl]pyrazole-3-carboxamide], the EC30 result is “+++ (“+++” means <3 uM)”.
`Cc1cccc(C)c1Cn1nc(-c2cccc(C(F)F)c2)cc1C(=O)NS(=O)(=O)c1ccccc1` [Compound 315, N-(benzenesulfonyl)-5-[3-(difluoromethyl)phenyl]-2-[(2,6-dimethylphenyl)methyl]pyrazole-3-carboxamide]: the EC30 entry was “+++ (“+++” means <3 uM)”.
On to `CC(C)COc1cc(F)cc(-c2ccc(C(=O)NS(=O)(=O)c3cccc(N)n3)c(N3C[C@@H]4CC[C@@H](C4)C3)n2)c1` [Compound 581, N-[(6-amino-2-pyridyl)sulfonyl]-2-[(1R,5S)-3-azabicyclo[3.2.1]octan-3-yl]-6-(3-fluoro-5-isobutoxy-phenyl)pyridine-3-carboxamide], for which the EC30 entry was “+++ (“+++” means <3 uM)”.

For orientation: EC30 means the concentration needed for an effect of 30%.
